# Results as given in US7419984B2, “Pyrimidines and uses thereof” (Cell Therapeutics, Inc., priority 2002, dated 2008).
# Molecular target: T1, human LPAAT-β (Homo sapiens, UniProt O15120)
# T1 construct: the full-length human LPAAT-β cDNA was amplified by PCR; poly-histidine tag (N); made in house; host or cells: Sf9 insect cells (baculovirus, pFastBac HTc); the membrane fraction was used as the enzyme
# T1 sequence (O15120 24-278): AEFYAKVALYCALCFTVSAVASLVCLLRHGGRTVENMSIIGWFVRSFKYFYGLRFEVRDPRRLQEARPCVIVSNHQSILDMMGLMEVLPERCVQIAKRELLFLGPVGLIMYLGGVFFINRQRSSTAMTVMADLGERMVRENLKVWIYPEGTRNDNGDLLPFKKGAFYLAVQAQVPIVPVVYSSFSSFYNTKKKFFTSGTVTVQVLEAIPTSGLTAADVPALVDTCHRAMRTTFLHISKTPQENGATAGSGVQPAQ
# Assay: LPAAT-β cell-free assay
# Format: biochemical
# Conditions: Sf9 cell membrane overexpressing recombinant LPAAT-β
# How it was run: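 Membranes from Sf9 cells expressing His/myc-tagged full-length human LPAAT-β were used in HEPES-saline pH 7.5 with 1 mg/ml BSA. Compound was added from a 200 μM DMSO stock, and reaction with 18:1-CoA and sn-1-18:1 lysoPA (1 mM stocks) ran 25 min at RT. Released CoA was detected with DTNB at 405 nm; a radiometric variant used 200 μM [14C]18:1-CoA and 200 μM lysoPA.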
row,Structure (SMILES),IC50 [nM]
1,"CC(=O)c1ccc(Nc2cc(-c3cccc(Cl)c3)nc(N)n2)cc1 [Example 139, 1-{4-[2-Amino-6-(3-chloro-phenyl)-pyrimidin-4-ylamino]-phenyl}-ethanone]",340
2,"CCOc1ccc(Cl)cc1-c1cc(Nc2ccc(COC(=O)CN)cc2)nc(N)n1 [Example 64, Amino acetic acid-4-[2-amino-6-(5-chloro-2-ethoxy-phenyl)-pyrimidin-4-ylamino]-benzyl ester]",1500
3,"C=CCOc1ccc(Cl)cc1-c1cc(Nc2ccc(Cl)cc2)nc(N)n1 [Example 174, 6-(2-Allyloxy-5-chloro-phenyl)-N*4*-(4-chloro-phenyl)-pyrimidine-2,4-diamine]",9
4,"Cc1ccc(Cl)cc1-c1cc(Nc2ccc([N+](=O)[O-])cc2)nc(N)n1 [Example 108, 6-(5-Chloro-2-methyl-phenyl)-N*4*-(4-nitro-phenyl)-pyrimidine-2,4-diamine]",15
5,"COc1ccc(Cl)cc1-c1cc(Nc2ccc(Br)cc2)nc(N)n1 [Example 5, N*4*-(4-Bromo-phenyl)-6-(5-chloro-2-methoxy-phenyl)-pyrimidine-2,4-diamine]",29
6,"Nc1nc(Nc2ccc(Br)cc2)cc(-c2cc(Cl)ccc2Cl)n1 [Example 14, N*4*-(4-Bromo-phenyl)-6-(2,5-dichloro-phenyl)-pyrimidine-2,4-diamine]",26
7,"CCOc1ccc(Br)cc1-c1cc(Nc2cccc(C(N)=O)c2)nc(N)n1 [Example 138, 3-[2-Amino-6-(5-Bromo-2-ethoxy-phenyl)-pyrimidin-4yl-amino]-benzamide]",950
8,"Nc1nc(Nc2ccc(CO)cc2)cc(-c2cc(Cl)ccc2Cl)n1 [Example 22, {4-[2-Amino-6-(2,5-dichloro-phenyl)-pyrimidin-4-yl-amino]-phenyl}-methanol]",60
9,"CCOc1ccc(Cl)cc1-c1cc(Nc2ccc(Cl)cc2)nc(N)n1 [Example 55, 6-(5-Chloro-2-ethoxy-phenyl)-N*4*-(4-chloro-phenyl)-pyrimidine-2,4-diamine]",17
10,"CCOc1ccc(Br)cc1-c1cc(Nc2ccc(C(=O)c3ccccc3)cc2)nc(N)n1 [Example 59, {4-[2-Amino-6-(5-bromo-2-ethoxy-phenyl)-pyrimidin4-ylamino]-phenyl}-phenyl-methanone]",210
11,"CCOc1ccc(Br)cc1-c1cc(Nc2ccc(CO)cc2)nc(N)n1 [Example 62, {4-[2-Amino-6-(5-bromo-2-ethoxy-phenyl)-pyrimidin4-ylamino]-phenyl}-methanol]",80
12,"Nc1nc(Nc2ccc(Cl)cc2)cc(-c2cc(Cl)ccc2OCC2CCCCC2)n1 [Example 168, 6-(5-Chloro-2-cyclohexylmethoxy-phenyl)-N*4*-(4-chloro-phenyl)-pyrimidine-2,4-diamine]",16
13,"CCOc1ccc(Cl)cc1-c1cc(Nc2ccc(S(N)(=O)=O)cc2)nc(N)n1 [Example 96, 4-[2-Amino-6-(5-chloro-2-ethoxy-phenyl)-pyrimidin-4-ylamino]-benzenesulfonamide]",73
14,"Cc1ccc(Cl)cc1-c1cc(Nc2ccc(C(CO)CO)cc2)nc(N)n1 [Example 116, 2-{4-[2-Amino-6-(5-chloro-2-methyl-phenyl)-pyrimidin-2-yl-amino]-phenyl}-propane-1,3-diol]",1100
15,"Nc1nc(Nc2ccc(Cl)cc2)cc(-c2cc(Br)ccc2OCCN2CCOCC2)n1 [Example 149, 6-[5-Bromo-2-(2-morpholin4-yl-ethoxy)-phenyl]-N*4*-(4-chloro-phenyl)-pyrimidine-2,4-diamine]",71
16,"Cc1nc(Nc2ccc3cn[nH]c3c2)cc(-c2cc(Cl)ccc2C)n1 [Example 43, [6-(5-Chloro-2-methyl-phenyl)-2-methyl-pyrimidin-4-yl]-(1H-indazol-6-yl)-amine]",17
17,"CCOc1ccc(Cl)cc1-c1cc(Nc2ccc(C(C)=O)cc2)nc(N)n1 [Example 121, 1-{4-[2-amino-6-(5-chloro-2-ethoxyphenyl)pyrimidin-4-ylamino]phenyl}ethanone]",49
